For one assay, the system named is B. infantis NRRL B-14911. In words: Osmostress protection assay of B. infantis. The assay is classed as cell-based, Bacillus infantis. The settings on record: basal medium with 0.9 M NaCl, 1 mM osmostress protectant, 29 h, 37°C. How it is done:
(§1) Bacterial strains were propagated in Luria–Bertani (LB) liquid media at 37°C or plated on LB agar plates. The B. infantis strain NRRL B-14911 was grown in MOPS-buffered basal medium [50 mM MOPS (pH 7.5), 50 mM MgSO4, 10 mM KCl, 10 mM CaCl2, 190 mM NH4Cl, 0.33 mM K2HPO4, 0.1 mM FeSO4] supplemented with 0.5% glucose (wt/vol) as a carbon source, 0.4% casamino acids (wt/vol), 5 ml l^-1 vitamin solution A (7.8 mg l^-1 biotin, 15.6 mg l^-1 nicotinic acid, and 15.6 mg l^-1 lipoic acid; pH adjusted to 7.5), and 5 ml l^-1 vitamin solution B (15.6 mg l^-1 pantothenic acid, 15.6 mg l^-1 pyridoxine-HCl, 15.6 mg l^-1 thiamine, 15.6 mg l^-1 p-aminobenzoic acid, and 0.32 mg l^-1 cobalamin) ([Gonzalez et al., 1997]). In main cultures used for osmostress protection assays, casamino acids were left out from the growth medium. The osmolarity of growth media was adjusted by the addition of NaCl from a 5 M NaCl stock solution. If desired, osmostress protectants were added to the medium of B. infantis NRRL B-14911 cultures at a final concentration of 1 mM. For growth experiments, liquid cultures of B. infantis NRRL B-14911 were grown in 100-ml Erlenmeyer flasks containing 20-ml of medium in a water bath set to 37°C with vigorous shaking (set to 220 rpm). Pre-cultures of strains were propagated to mid-exponential growth phase in basal medium (with 0.4% casamino acids) and were then used to inoculate fresh basal medium (without casamino acids) to an optical density at 578 nm (OD578) of 0.1. Liquid cultures of B. subtilis strains were grown at 37°C in Spizizen’s minimal medium (SMM) ([Harwood and Archibald, 1990]) with 0.5% glucose as carbon source and a solution of trace elements ([Harwood and Cutting, 1990]). L-Tryptophan (20 mg l^-1) and L-phenylalanine (18 mg l^-1) were added to SMM-derived growth media to satisfy the auxotrophic needs of the B. subtilis strain JH642 (trpC2 pheA1) ([Smith et al., 2014]) and its derivatives (Supplementary Table S1). Cultures (20-ml in 100-ml Erlenmeyer flasks) of B. subtilis strains were inoculated from exponentially growing pre-cultures in SMM to an OD578 of 0.1 and were incubated in a shaking water bath (set to 220 rpm) at 37°C. If needed, the osmolarity of the growth medium was increased by the addition of NaCl (from 5 M stock solutions prepared in H2O). Compatible solutes were filter sterilized and added to the growth medium of B. subtilis strains from 100 mM stock solutions to a final concentration of 1 mM unless otherwise explicitly stated in the text.
(A) Influence of increasing salinity on the growth of B. infantis NRRL B-14911. Cultures were grown in basal medium adjusted to the indicated salinity. Growth yields were measured after 30 h of incubation at 37°C. (B) Osmostress protection assays were carried out in basal medium supplemented with 0.9 M NaCl and in the presence of 1 mM of the indicated osmostress protectants. After 29 h of incubation at 37°C, growth yields were determined by measuring the OD578 of the cultures. (C) Substrate specificity of the B. infantis OpuA transporter. The opuA operon (and its flanking opuAR gene) of B. infantis NRRL B-14911 was heterologously expressed in a derivative of B. subtilis JH642, lacking all uptake system for compatible solutes except for the L-proline-specific OpuE transporter ([Hoffmann and Bremer, 2017]; [Teichmann et al., 2017]). Growth assays were conducted in minimal medium (SMM), either in the absence or presence of 1.2 M NaCl and 1 mM of the indicated osmostress protectants. After 18 h of incubation at 37°C, the optical densities (OD578) of the cultures were measured. The given values are the means and standard deviations of four independent biological replicates.
Next, we studied the possible osmostress protection of B. infantis NRRL B-14911 by various exogenously provided compatible solutes.

Assay [1] relates to B. infantis OpuA transporter. Put plainly: Osmostress protection growth assay, B. infantis opuA operon expressed in B. subtilis strain CAB2. The assay is classed as cell-based, Bacillus infantis. The settings on record: for Osmostress protection (growth yield OD578): B. subtilis CAB2, SMM with 1.2 M NaCl, 1 mM osmostress protectant, 18 h, 37°C; for Substrate of / import via the B. infantis OpuA transporter: inferred from osmostress protection of B. subtilis CAB2, 1.2 M NaCl, 1 mM. How it is done:
as §1
For the heterologous expression of the B. infantis NRRL B-14911 opuA operon (opuAA-opuAB-opuAC) in B. subtilis, a 3826-bp DNA fragment including the coding region of the opuA operon and the adjacent opuAR regulatory gene was generated by PCR using primers CA3-opuARA fwd and CA3-opuARA rev (Supplementary Table S2). […] Plasmid pX and its recombinant derivatives allow the stable insertion of genes into the B. subtilis chromosome as a single copy into the non-essential amyE locus via a double homologous recombination event via amyE sequences present on both the plasmid and the chromosome ([Kim et al., 1996]). Insertion of plasmid pX, or its recombinant derivatives, into the B. subtilis chromosome at the amyE gene can be selected for on agar plates containing the antibiotic chloramphenicol (final concentration: 5 μg ml^-1) and the subsequently scoring of the AmyE negative phenotype of the strains on LB plates containing 1% starch ([Harwood and Cutting, 1990]). Linearized plasmid DNA of pCA-opuARA was used to transform the B. subtilis chassis strain TMB118 [Δ(opuA::tet)3 Δ(opuC::spc)3 Δ(opuD::neo)2 Δ(opuB::erm)3] ([Teichmann et al., 2017]) in which only the proline-specific osmostress OpuE transporter ([von Blohn et al., 1997]) is present. The resulting strain was CAB2 (Supplementary Table S1). B. subtilis mutants carrying chromosomal deletions of the yvaV and opcR genes were constructed using long-flanking region PCR ([Kuwayama et al., 2002]).

SMILES strings stand for the structures. Entries after “also recorded” stand apart in the source; their conditions may differ.

As for `CN(C)CC(=O)O` [DMG, dimethlyglycine], the “Osmostress protection (growth yield OD578)” value (from here on “Osmostress protection”) is “moderate level of osmostress protection” in the assay on B. infantis NRRL B-14911 and “at a reduced level” in assay [1].

In the case of `C[S+](C)CCC(=O)[O-]` [DMSP, dimethylsulfoniopropionate], the “Osmostress protection” value is on record as “moderate level of osmostress protection” with B. infantis NRRL B-14911 and “protected” in assay [1]. Moreover, in assay [1], the “Substrate of / import via the B. infantis OpuA transporter” value was “good substrate”.

As for `C[N+](C)(C)CCO` [choline], in the assay with B. infantis NRRL B-14911, the “Osmostress protection” value is recorded as “not osmostress protective; also recorded: does not serve as an osmostress protectant”. The “Substrate of / import via the B. infantis OpuA transporter” value in assay [1] is listed as “not imported; also recorded: not a substrate”.

Consider `C[N+](C)(C)CC(=O)[O-]` [glycine betaine], for which, in the assay on B. infantis NRRL B-14911, the “Osmostress protection” value is “substantial level of osmostress protection”. For the same molecule, in assay [1], the “Osmostress protection” value is listed as “protected” and the “Substrate of / import via the B. infantis OpuA transporter” value is on record as “major substrates”.

Take `C[N+](C)(C)CCC(=O)[O-]` [homobetaine]: the figures for the “Osmostress protection” value (in the assay with B. infantis NRRL B-14911; in assay [1]) were “moderate level of osmostress protection” and “protected”, respectively.

Consider `C[N+]1(C)CCC[C@H]1C(=O)[O-]` [proline betaine], for which the “Osmostress protection” value in the assay with B. infantis NRRL B-14911 was “substantial level of osmostress protection”. For the same molecule, in assay [1], the “Osmostress protection” value was “protected” and the “Substrate of / import via the B. infantis OpuA transporter” value is “major substrates”.

These data come from PMC6207618, “The GbsR Family of Transcriptional Regulators: Functional Characterization of the OpuAR Repressor” (Frontiers in Microbiology, 2018).
